Measured values taken from PubChem BioAssay AID248 (DTP/NCI, 2004).
Several values for one entry are separate records, joined by “and”; a condition that tells them apart may be missing. Equal values may be shown once. Toxic doses and inconclusive results are not listed. Cut-off read from the data, not from the text of the source: active = T/C of 150% or more; inactive = T/C below 125%.

System: L1210 leukemia ip in BDF1 mice, survival T/C
Assay: NCI In Vivo Anticancer Drug Screen. Data for tumor model L1210 Leukemia (intraperitoneal) in B6D2F1 (BDF1) mice
Details: higher = longer survival
Method in brief: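 In this screen, tumor-bearing mice given compound are compared to those given vehicle, and their survival values are reported as a treated-to-control quotient.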

[1] = endpoint: mean survival time, dose: 100.0 mg/kg/injection, schedule: Q01DX009 (ip), vehicle: saline with Tween-80
[2] = endpoint: mean survival time, dose: 100.0 mg/kg/injection, schedule: Q04DX003 (ip), vehicle: saline with Tween-80
[3] = endpoint: mean survival time, dose: 200.0 mg/kg/injection, schedule: Q01DX009 (ip), vehicle: saline with Tween-80
[4] = endpoint: mean survival time, dose: 200.0 mg/kg/injection, schedule: Q04DX003 (ip), vehicle: saline with Tween-80
[5] = endpoint: mean survival time, dose: 400.0 mg/kg/injection, schedule: Q01DX009 (ip), vehicle: saline with Tween-80
[6] = endpoint: mean survival time, dose: 400.0 mg/kg/injection, schedule: Q04DX003 (ip), vehicle: saline with Tween-80
[7] = endpoint: mean survival time, dose: 100.0 mg/kg/injection, schedule: Q04DX002 (ip), vehicle: Klucel (hydroxypropylcellulose) (HPC)
[8] = endpoint: mean survival time, dose: 200.0 mg/kg/injection, schedule: Q04DX002 (ip), vehicle: Klucel (hydroxypropylcellulose) (HPC)
[9] = endpoint: mean survival time, dose: 200.0 mg/kg/injection, schedule: Q01DX001 (ip), vehicle: saline
[10] = endpoint: mean survival time, dose: 400.0 mg/kg/injection, schedule: Q01DX001 (ip), vehicle: saline
[11] = endpoint: mean survival time, dose: 100.0 mg/kg/injection, schedule: Q01DX001 (ip), vehicle: carboxymethylcellulose (CMC)
[12] = endpoint: mean survival time, dose: 200.0 mg/kg/injection, schedule: Q01DX001 (ip), vehicle: carboxymethylcellulose (CMC)
[13] = endpoint: mean survival time, dose: 400.0 mg/kg/injection, schedule: Q01DX001 (ip), vehicle: carboxymethylcellulose (CMC)
[14] = endpoint: mean survival time, dose: 100.0 mg/kg/injection, schedule: Q04DX003 (ip), vehicle: Klucel (hydroxypropylcellulose) (HPC)
[15] = endpoint: mean survival time, dose: 400.0 mg/kg/injection, schedule: Q04DX003 (ip), vehicle: Klucel (hydroxypropylcellulose) (HPC)
[16] = endpoint: mean survival time, dose: 200.0 mg/kg/injection, schedule: Q04DX003 (ip), vehicle: Klucel (hydroxypropylcellulose) (HPC)
[17] = endpoint: mean survival time, dose: 100.0 mg/kg/injection, schedule: Q01DX009 (ip), vehicle: saline
[18] = endpoint: mean survival time, dose: 200.0 mg/kg/injection, schedule: Q01DX009 (ip), vehicle: saline
[19] = endpoint: mean survival time, dose: 400.0 mg/kg/injection, schedule: Q01DX009 (ip), vehicle: saline

Measured: T/C

Clc1onc(-c2ccccc2)c1-c1ccccc1
inactive: [1] 101 % of control | [2] 107 % of control | [3] 110 % of control | [4] 90 % of control | [5] 97 % of control | [6] 91 % of control

CC(=C1C2CCC1C(C(=O)N(C)C)C2C(=O)N(C)C)C(Cl)(Cl)Cl (stereo not drawn)
inactive: [7] 94 % of control | [8] 110 % of control | endpoint: mean survival time, dose: 400.0 mg/kg/injection, schedule: Q04DX002 (ip), vehicle: Klucel (hydroxypropylcellulose) (HPC) 90 % of control

c1ccc(CNc2ncnc3[nH]ncc23)cc1
inactive: endpoint: mean survival time, dose: 8.0 mg/kg/injection, schedule: Q01DX009 (ip), vehicle: saline 98 % of control | endpoint: mean survival time, dose: 16.0 mg/kg/injection, schedule: Q01DX009 (ip), vehicle: saline 103 % of control | endpoint: mean survival time, dose: 25.0 mg/kg/injection, schedule: Q01DX Z (ip), vehicle: carboxymethylcellulose (CMC) 123 % of control | endpoint: mean survival time, dose: 32.0 mg/kg/injection, schedule: Q01DX009 (ip), vehicle: saline 98 % of control | endpoint: mean survival time, dose: 50.0 mg/kg/injection, schedule: Q01DX Z (ip), vehicle: carboxymethylcellulose (CMC) 109 % of control | [9] 105 % of control | [10] 101 % of control | endpoint: mean survival time, dose: 800.0 mg/kg/injection, schedule: Q01DX001 (ip), vehicle: saline 102 % of control | endpoint: median survival time, dose: 8.0 mg/kg/injection, schedule: Q01DX009 (ip), vehicle: saline 93 % of control and 100 % of control and 118 % of control | endpoint: median survival time, dose: 16.0 mg/kg/injection, schedule: Q01DX009 (ip), vehicle: saline 100 % of control (2×) and 112 % of control | endpoint: median survival time, dose: 32.0 mg/kg/injection, schedule: Q01DX009 (ip), vehicle: saline 105 % of control and 112 % of control | endpoint: median survival time, dose: 64.0 mg/kg/injection, schedule: Q01DX009 (ip), vehicle: saline 100 % of control (2×) and 122 % of control

CCC[CH2][Sn](=[S])[CH2]CCC
inactive: endpoint: mean survival time, dose: 0.69 mg/kg/injection, schedule: Q01DX009 (ip), vehicle: other 98 % of control | endpoint: mean survival time, dose: 0.78 mg/kg/injection, schedule: Q01DX009 (ip), vehicle: saline 93 % of control | endpoint: mean survival time, dose: 1.04 mg/kg/injection, schedule: Q01DX009 (ip), vehicle: other 95 % of control | endpoint: mean survival time, dose: 1.56 mg/kg/injection, schedule: Q01DX009 (ip), vehicle: other 96 % of control | endpoint: mean survival time, dose: 1.56 mg/kg/injection, schedule: Q01DX009 (ip), vehicle: saline 112 % of control | endpoint: mean survival time, dose: 2.34 mg/kg/injection, schedule: Q01DX009 (ip), vehicle: other 107 % of control | endpoint: mean survival time, dose: 3.12 mg/kg/injection, schedule: Q01DX009 (ip), vehicle: saline 114 % of control | endpoint: mean survival time, dose: 3.13 mg/kg/injection, schedule: Q01DX009 (ip), vehicle: other 105 % of control | endpoint: mean survival time, dose: 6.25 mg/kg/injection, schedule: Q01DX009 (ip), vehicle: saline 122 % of control | endpoint: mean survival time, dose: 12.5 mg/kg/injection, schedule: Q01DX009 (ip), vehicle: other 88 % of control | endpoint: mean survival time, dose: 12.5 mg/kg/injection, schedule: Q04DX003 (ip), vehicle: other 98 % of control | [11] 115 % of control | [12] 102 % of control | [13] 86 % of control

CCOC(=O)Nc1cncc(NC(=O)OCC)n1
inactive: endpoint: mean survival time, dose: 6.25 mg/kg/injection, schedule: Q01DX009 (ip), vehicle: water 96 % of control | endpoint: mean survival time, dose: 12.5 mg/kg/injection, schedule: Q01DX009 (ip), vehicle: water 90 % of control | endpoint: mean survival time, dose: 25.0 mg/kg/injection, schedule: Q01DX009 (ip), vehicle: water 117 % of control and 91 % of control | endpoint: mean survival time, dose: 50.0 mg/kg/injection, schedule: Q01DX009 (ip), vehicle: water 93 % of control and 91 % of control | endpoint: mean survival time, dose: 100.0 mg/kg/injection, schedule: Q01DX009 (ip), vehicle: water 96 % of control and 101 % of control | endpoint: mean survival time, dose: 200.0 mg/kg/injection, schedule: Q01DX009 (ip), vehicle: water 111 % of control

Cc1ccc(NC(=O)Oc2ccc(F)cc2Cl)cc1NC(=O)Oc1ccc(F)cc1Cl
inactive: [1] 91 % of control | [2] 95 % of control | [3] 100 % of control | [4] 88 % of control | [5] 86 % of control | [6] 95 % of control

O=C(CNC(=O)C(CSCc1ccccc1)NC(=O)OCc1ccccc1)OCc1ccccc1 (stereo not drawn)
inactive: endpoint: mean survival time, dose: 25.0 mg/kg/injection, schedule: Q01DX009 (ip), vehicle: gum acacia 92 % of control | endpoint: mean survival time, dose: 50.0 mg/kg/injection, schedule: Q01DX009 (ip), vehicle: gum acacia 87 % of control | endpoint: mean survival time, dose: 100.0 mg/kg/injection, schedule: Q01DX009 (ip), vehicle: gum acacia 94 % of control | [14] 89 % of control | [15] 99 % of control

O=C(O)c1ccccc1C(=O)Nc1cccc2ccccc12
inactive: [7] 88 % of control | [8] 104 % of control

CCCCCCCCCCCCCCCc1cc(=O)n(-c2ccc(NC(=O)/C=C/C(=O)O)cc2)n1C
inactive: [14] 98 % of control | [16] 94 % of control

COCC(C)C=O (stereo not drawn)
inactive: endpoint: mean survival time, dose: 50.0 mg/kg/injection, schedule: Q01DX009 (ip), vehicle: saline with Tween-80 91 % of control | [1] 91 % of control | [3] 94 % of control

CNc1ccccc1[N+](=O)[O-]
inactive: endpoint: mean survival time, dose: 100.0 mg/kg/injection, schedule: Q01DX009 (ip), vehicle: Klucel (hydroxypropylcellulose) (HPC) 100 % of control | endpoint: mean survival time, dose: 100.0 mg/kg/injection, schedule: Q01DX009 (ip), vehicle: other 104 % of control | [14] 96 % of control | endpoint: mean survival time, dose: 100.0 mg/kg/injection, schedule: Q04DX003 (ip), vehicle: other 107 % of control | endpoint: mean survival time, dose: 200.0 mg/kg/injection, schedule: Q01DX009 (ip), vehicle: Klucel (hydroxypropylcellulose) (HPC) 98 % of control | endpoint: mean survival time, dose: 200.0 mg/kg/injection, schedule: Q01DX009 (ip), vehicle: other 95 % of control | [16] 95 % of control | endpoint: mean survival time, dose: 200.0 mg/kg/injection, schedule: Q04DX003 (ip), vehicle: other 97 % of control | endpoint: mean survival time, dose: 400.0 mg/kg/injection, schedule: Q01DX009 (ip), vehicle: Klucel (hydroxypropylcellulose) (HPC) 104 % of control | endpoint: mean survival time, dose: 400.0 mg/kg/injection, schedule: Q01DX009 (ip), vehicle: other 95 % of control | [15] 98 % of control | endpoint: mean survival time, dose: 400.0 mg/kg/injection, schedule: Q04DX003 (ip), vehicle: other 113 % of control

Nc1nc(=O)n(C2CCCO2)cc1Br (stereo not drawn)
inactive: endpoint: mean survival time, dose: 100.0 mg/kg/injection, schedule: Q01DX001 (ip), vehicle: saline 100 % of control | [9] 103 % of control | [10] 87 % of control

N#Cc1[nH]cnc1N1CC[N+](CCCl)=N1
inactive: [17] 104 % of control | [18] 103 % of control | [19] 95 % of control

CC(C)N1c2c(nc(N)[nH]c2=O)NCC1CNc1ccc(C(=O)NC(CCC(=O)O)C(=O)O)cc1 (stereo not drawn)
inactive: [17] 102 % of control | endpoint: mean survival time, dose: 100.0 mg/kg/injection, schedule: Q04DX003 (ip), vehicle: saline 104 % of control | [18] 102 % of control | endpoint: mean survival time, dose: 200.0 mg/kg/injection, schedule: Q04DX003 (ip), vehicle: saline 98 % of control | [19] 102 % of control | endpoint: mean survival time, dose: 400.0 mg/kg/injection, schedule: Q04DX003 (ip), vehicle: saline 98 % of control

FC(F)(F)C(F)(F)C1=NS1(C(F)(C(F)(F)F)C(F)(F)F)C(F)(C(F)(F)F)C(F)(F)F
inactive: endpoint: mean survival time, dose: 100.0 mg/kg/injection, schedule: Q01DX001 (ip), vehicle: acetone 94 % of control | endpoint: mean survival time, dose: 200.0 mg/kg/injection, schedule: Q01DX001 (ip), vehicle: acetone 103 % of control | endpoint: mean survival time, dose: 400.0 mg/kg/injection, schedule: Q01DX001 (ip), vehicle: acetone 101 % of control

Clc1ccc([I+]c2ccc(Cl)c(Cl)c2)cc1Cl
inactive: endpoint: mean survival time, dose: 4.0 mg/kg/injection, schedule: Q01DX015 (ip), vehicle: carboxymethylcellulose (CMC) 98 % of control | endpoint: mean survival time, dose: 8.0 mg/kg/injection, schedule: Q01DX015 (ip), vehicle: carboxymethylcellulose (CMC) 96 % of control | endpoint: mean survival time, dose: 16.0 mg/kg/injection, schedule: Q01DX015 (ip), vehicle: carboxymethylcellulose (CMC) 87 % of control | endpoint: mean survival time, dose: 32.0 mg/kg/injection, schedule: Q01DX015 (ip), vehicle: carboxymethylcellulose (CMC) 96 % of control | [11] 95 % of control | [12] 106 % of control | [13] 111 % of control
